Measured values as given in patent publication US8143254B2, “Methods for modulating ion channels” (Cornell Research Foundation, Inc., priority 2005, dated 2012).
Read-outs that look alike come from different tables or passages of the source.

Molecular target: T1, Kv2.1 (Rattus norvegicus, UniProt P15387)
T1 construct: expressed in transfected cells; host or cells: Xenopus laevis oocytes (cRNA injection, pGA1 vector)
Experiment: Two-electrode voltage clamp (TEVC) of Xenopus oocytes expressing Kv2.1, bath-applied compound
Assay type: cell-based
Details: for effect on Kv2.1 currents: 1 mM, bath applied; for slope of dose response curve: Kv2.1, Example 8; for relative sensitivity of Kv2.1 and Kv3.4: Kv2.1 versus Kv3.4; for mean inhibition at 0 mV relative to +60 mV: Kv2.1, voltage dependence of block
Text: The ion channel subunit genes are in expression vectors that facilitate in vitro transcription of channel cRNA using the Ambion mMessage mMachine in vitro transcription kit. cDNA constructs are column-purified, linearized with the appropriate restriction enzyme that cuts a single site following the polyA tail, then purified by precipitation and transcribed in vitro using a promoter, such as T7, T3 and SP6. Transcribed cRNA is purified by precipitation and resuspended in RNAse-free water ready for injection. Each transcription can provide enough cRNA for several months of experiments.
Stage V-VI Xenopus oocytes are separated into small groups using forceps, defolliculated by agitation in Ca^2+-free Ringer solution containing collagenase for one hour, washed, then stored at 15° C. in full Ringers solution before injection. cRNA sufficient to give 1-10 μA of current at physiological voltages for each channel type is injected into Xenopus oocytes (selected by appearance for overall health and uniformity of color) using a Sutter manual injector (typically 0.1-5 ng cRNA in a volume of 25-50 nl). The oocytes are then stored for 1-3 days at 15° C. before TEVC recording. Beta subunit cRNA is co-injected as appropriate, typically 2 ng per oocyte.
Whole cell oocyte experiments are performed using a Warner OC-725C amplifier and pClamp9 software with oocytes bathed in a small-volume Warner oocyte bath and viewed with a Fisher dissection microscope. Bath solution for whole cell oocyte recordings, e.g., for potassium channel analysis, is generally (in mM): 96 NaCl, 4 KCl, 1 MgCl2, 0.3 CaCl2, 10 HEPES (Ph 7.4); whole-cell oocyte TEVC pipettes are filled with 3 M KCl. Oocyte patches are studies using an Axon Instruments small-volume bath, viewed with an Olympus IX50 inverted microscope, and recordings made using an Axon Multiclamp 700 A Amplifier and pCLAMP9 software (Axon Instruments). Extracellular solution, e.g., for potassium channel analysis, is generally (in mM): 135 NaCl, 5 KCl, 1.2 MgCl2, 5 HEPES, 2.5 CaCl2, 10 D-glucose (Ph 7.4). Intracellular solution, e.g., for potassium channel analysis, is generally (in mM): 10 NaCl, 117 KCl, 2 MgCl2, 11 HEPES, 11 EGTA, ICaCl2 (Ph 7.2). Patch pipettes are approximately 3-5 MΩ resistance when filled with recording solution.
Quantitative aspects of ion action on ion channels are compared using standard pulse protocols. Pulse times and voltages will vary according to which currents are being studied. […] Drug inhibition constants are calculated after generating a dose response curve by fitting with a logistic dose-response function (see equation (i) below). Typically, 5-20 cells per group are recorded from for heterologous expression experiments. Values are to be stated as mean±SEM with statistical significance set at p<0.05 (unpaired students t-test, ANOVA or the Mann-Whitney Rank Sum Test as appropriate).
Injected oocytes, bathed in bath solution containing 4 mM KCl, unless otherwise stated, are impaled with current and voltage electrodes and clamped at −80 mV holding potential using a Warner OC-725C amplifier. […] Drug concentrations are chosen to ensure inhibition values between 0 and 90-100% with at least 3 values within the linear portion of the curve so that the inhibition constant (Ki) can be calculated accurately by fitting with a logistic dose-response function (formula (i)) using the Origin 6.1 graph package.
Kv2.1 mutants were constructed using the QuickChange Multi Site-Directed Mutagenesis Kit (Stratagene, La Jolla, Calif.). […] For oocyte expression, Kv3.4 was in pBF1, Kv4.2 was in pRAT. cRNA transcripts were produced from SacII-linearized (Kv2.1), Mlullinearized (Kv3.4) and Not1-linearized (Kv4.2) DNA templates using the T3 (Kv2.1), SP6 (Kv3.4) and T7 (Kv4.2) mMessage mMachine kits (Ambion, Austin, Tex.). cRNA was quantified by spectrophotometry and its size integrity verified by gel electophoresis.

[1] = IC50, Kv2.1, logistic dose response fit, Example 8

T1 sequence (P15387 whole entry): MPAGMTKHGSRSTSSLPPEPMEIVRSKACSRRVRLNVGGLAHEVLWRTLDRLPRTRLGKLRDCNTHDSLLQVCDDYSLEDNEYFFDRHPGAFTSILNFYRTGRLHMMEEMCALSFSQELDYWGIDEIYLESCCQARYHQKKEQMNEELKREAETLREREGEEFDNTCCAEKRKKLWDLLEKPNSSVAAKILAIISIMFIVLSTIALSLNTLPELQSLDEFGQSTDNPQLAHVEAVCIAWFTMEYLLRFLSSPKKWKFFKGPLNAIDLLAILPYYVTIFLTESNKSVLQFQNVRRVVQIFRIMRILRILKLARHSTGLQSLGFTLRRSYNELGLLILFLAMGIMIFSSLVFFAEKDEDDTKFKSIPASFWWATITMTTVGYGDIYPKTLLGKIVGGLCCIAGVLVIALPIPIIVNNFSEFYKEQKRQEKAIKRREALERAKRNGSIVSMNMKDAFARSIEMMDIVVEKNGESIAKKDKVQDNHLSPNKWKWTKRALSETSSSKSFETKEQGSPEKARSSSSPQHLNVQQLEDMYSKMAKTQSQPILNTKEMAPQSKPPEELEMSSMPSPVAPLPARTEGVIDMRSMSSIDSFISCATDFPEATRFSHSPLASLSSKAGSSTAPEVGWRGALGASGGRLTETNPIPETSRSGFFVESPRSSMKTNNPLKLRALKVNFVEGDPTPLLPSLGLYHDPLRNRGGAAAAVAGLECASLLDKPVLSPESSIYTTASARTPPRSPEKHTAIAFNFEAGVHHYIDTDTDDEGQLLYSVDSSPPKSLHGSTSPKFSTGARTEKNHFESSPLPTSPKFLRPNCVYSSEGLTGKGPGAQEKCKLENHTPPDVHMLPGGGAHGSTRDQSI

Compound	effect on Kv2.1 currents	slope of dose response curve	relative sensitivity of Kv2.1 and Kv3.4	IC50 [1]	mean inhibition at 0 mV relative to +60 mV	p (Hill slope) of logistic dose-response fit (Kv2.1 alone, Example 4)	also measured
c1cc(C[N+]23CCN(CC2)CC3)ccc1C[N+]12CCN(CC1)CC2 [JC638.2α, α,α′-[bis(4-aza-1-azoniabicyclo[2.2.2]octanyl)]p-xylene]	significant inhibition	1.4±0.1	significantly differentiate between Kv2.1 and Kv3.4				IC50 (Kv2.1, logistic dose response fit, Example 8, read-out: IC50): 186 ± 17 µM; voltage dependence of block (inhibition attenuated at more positive voltages): voltage dependent block
C(CCCC[N+]12CCN(CC1)CC2)CCC[N+]12CCN(CC1)CC2 [TG27, 1,8-[bis(4-aza-1-azoniabicyclo[2.2.2]octanyl)]octane]		2.1±0.8	Kv2.1 was more sensitive than Kv3.4	270 ± 66.4 µM			
CCCCCCCCCCCCCCCC[N+]12CCN(CC1)CC2 [TA279, 1-aza-4-azonia-4-hexadecylbicyclo[2.2.2]octane]		0.6±0.4		1.9 ± 3.6 µM	3 fold	0.8±0.1	sensitivity of Kv2.1 currents to TA279 relative to JE188: 20 fold; inhibition of Kv2.1 (1 μM): inhibiting; inhibition of Kv2.1 (5 mM): almost complete inhibition; time for washout (compared with TEA): several minutes; IC50 (x0 of logistic dose-response fit of current inhibition, Kv2.1 alone, external bath application, Example 4): 1 ± 0.8 µM
C(CC[N+]12CCN(CC1)CC2)C[N+]12CCN(CC1)CC2 [TG26]	less effective than TG27		Kv2.1 was more sensitive than Kv3.4				
CCCCCCCCCCCC[N+]12CCN(CC1)CC2 [JE188, 1-aza-4-azonia-4-dodecylbicyclo[2.2.2]octane]		1.4±0.1			3 fold	1.4±0.1	inhibition of Kv2.1 (50 μM): significantly inhibited; inhibition of Kv2.1 (250 μM): almost complete inhibition; IC50 (Kv2.1 alone, external bath application, Example 4, read-out: x0 of logistic dose-response fit of current inhibition (converted)): 23.3 ± 2.1 µM; sensitivity of Kv2.1 currents to compound relative to tetraethylammonium (externally applied): 500 fold
